For experiment [1], the system named is A2780CP70 (cisplatin-resistant ovarian cancer) cells. The experiment is described as follows: MTT cell viability (cytotoxicity). The conditions noted are these: 48 hours incubation, read-out: IC50 A2780 CP70 (cisplatin-resistant ovarian cancer). The class given is cell-based. The method, then: (§1) All compounds were dissolved in PBS at pH 7.4 to prepare 1-2 mM stock solutions. For cell viability studies, all cells were grown to 80-90% confluence, detached with trypsin/EDTA, seeded in 96-well plates at 4000-8000 cells/well in 100 μL of growth media, and incubated for 24 hours. The medium was removed and replaced with fresh medium (200 μL) containing varying dilutions of either the rhenium compounds, cisplatin, or media. The cells were then incubated for 48 hours. The medium was removed from the wells, and 3-(4,5-dimethylthiazol-2-yl)-[…] (MTT) in DMEM, RPMI, or MEM (200 μL, 1 mg/mL) was added. The additional 48 hours incubation was performed to ensure that the cells were in the logarithmic growth phase and that the cells had adequate time to regrow after exposure to the complexes. After 4 hours, the MTT/DMEM, RPMI, or MEM solution was removed, and the formazan crystals were dissolved in 200 μL of an 8:1 mixture of DMSO and pH 10 glycine buffer. The absorbance at 570 nm in each well was measured using a BioTek Synergy HT plate reader. Cell viability was determined by normalizing the absorbance of the treated wells to untreated wells. The % viability data shown is an average of three independent experiments with six replicates per concentration

Experiment [2] concerns HeLa (cervical cancer) cells. As to the kind of experiment: MTT cell viability (cytotoxicity). The class given is cell-based. To be noted: 48 hours incubation. The method, then: as §1
The next experiment concerns A549 (lung cancer) cells. The experiment is described as follows: MTT cell viability (cytotoxicity). The class given is cell-based. The conditions noted are these: 48 hours incubation. The method, then: as §1
Experiment [3] has as its system A2780 (ovarian cancer) cells. As to the kind of experiment: MTT cell viability (cytotoxicity). The class given is cell-based. The conditions noted are these: 48 hours incubation. The method, then: as §1
In another experiment the test system is HEK293 (kidney) cells. As to the kind of experiment: MTT cell viability (cytotoxicity). The conditions noted are these: 48 hours incubation, non-cancer cell line. The class given is cell-based. The method, then:
as §1

A further experiment has as its system LC3 in A2780 cells. To be noted: after 24 hours.
The next experiment has as its system cells. To be noted: vs untreated cells. An excerpt: (§2) Hyperphosphorylation of eIF2α can lead to apoptosis via upregulation of the stress-related transcription factors ATF4 and CHOP (H. Matsumoto et al., Biol. Open 2013, 2, 1084-1090). […] Phosphorylation of eIF2α also results in cell cycle arrest in the G1 phase (J. W. Brewer et al., Proc. Natl. Acad. Sci. U.S.A. 2000, 97, 12625-12630).

Experiment [4] has as its system cytochrome c release from the mitochondria. The conditions noted are these: flow cytometry. Background: In flow cytometry, cells or beads pass a laser one at a time.
Experiment [5] has as its system proteasome inhibition, HSP90 inhibition, reactive oxygen species generation.
The test system of experiment [6] is National Cancer Institute (NCI)-60 cell line panel.
In experiment [7] the test system is HeLa cells.
The test system of experiment [8] is eIF2α phosphorylation, ATF4, CHOP in A2780 cells.
From the text: (§3) Salubrinal operates by inhibiting dephosphorylation of the master regulatory protein eukaryotic initiation factor 2α (eIF2α), an integral component of the UPR. […] Next, the downstream effects of eIF2α phosphorylation were investigated. The most immediate and pronounced effect of eIF2α phosphorylation is the inhibition of translation (S. R. Kimball, Int. J. Biochem. Cell Biol. 1999, 31, 25-29).
as §2

Another experiment has as its system A2780 cells.
From the text: as §3

In experiment [9] the test system is mutant MEF cell line incapable of eIF2α phosphorylation. To be noted: mutant cells after treatment.
From the text: as §3

The test system of experiment [10] is HeLa cells. The conditions noted are these: 5 μM, within 30 minutes, vs untreated cells. The text has this: Phosphorylation of eIF2α often occurs due to the accumulation of misfolded proteins.

By IC50 is commonly meant the midpoint of a concentration-inhibition curve. For `Cc1ccc2ccc3ccc(C)nc3c2n1.[C-]#[O+].[C-]#[O+].[C-]#[O+].[Re+]` [Neo-Re, [Re(CO)3(dmphen)(OH2)]^+], the IC50 in experiment [1] was found to be 6 ± 0.2 µM; in experiment [2], 4.4 ± 1.3 µM; in the experiment on A549 (lung cancer) cells, 7.7 ± 2.4 µM; in experiment [3] it was 5.7 ± 0.6 µM; with HEK293 (kidney) cells it was 9 ± 0.3 µM.

As to [Re(CO)3(dmphen)(p-tol-ICN)]Cl [TRIP], the “LC3II expression relative to LC3I” value in the experiment with LC3 in A2780 cells is recorded as “large increase in LC3II expression relative to LC3I”. Moreover, in the experiment on cells, the “increase in population of cells in the G1 phase” value amounted to 18%. Moreover, in experiment [4], the “cytochrome c release from mitochondria” value is listed as “Cytochrome c release occurs on the same time scale as apoptosis induction”. For the same molecule, the IC50 in experiment [1] is 1.9 ± 1 µM; in experiment [2] it was 1.4 ± 0.2 µM; in the experiment with A549 (lung cancer) cells it was 1.4 ± 0.6 µM; in experiment [3], 1.7 ± 0.7 µM; in the experiment with HEK293 (kidney) cells it was 1.9 ± 0.2 µM. Also, in [5], the “protein misfolding via proteasome inhibition, HSP90 inhibition, or ROS generation” value is “no evidence has been found”. The “activity across NCI-60 cell line panel” value in experiment [6] is “most potent in melanoma and breast cancer cells lines and least effective in lung and renal cancer cell lines”. Also, the mitochondrial morphology result in the experiment with HeLa cells [7] (HeLa cells, 5 μM, after only 30 minutes) is “significantly rounded and punctate”. In addition, the “mitochondrial polarization (JC-1)” value in the experiment with HeLa cells [7] (ratiometric sensor JC-1) is reported as “mitochondria remained functional”. In [8] (Western blot), the “ATF4 and CHOP expression” value is “both ATF4 and CHOP were upregulated”. The eIF2α phosphorylation entry in [8] (as little as 2 hours after exposure) was “induction of eIF2α phosphorylation”. The “puromycin incorporation (translation)” value with A2780 cells (5 μM, as early as 2 hour post incubation, vs untreated controls) is “substantially less puromycin”. The “factor of increase in activity in presence of salubrinal” value in the experiment on A2780 cells (25 μM salubrinal) is 4. For the same molecule, the “translation levels in eIF2α mutant MEF cells” value in experiment [9] is recorded as “no changes in translation levels”. Further, the “fluorescence intensity of ThT (protein aggregates)” value with HeLa cells [10] was “increased significantly”.

With `N.N.[Cl][Pt][Cl]` [Cisplatin, cisplatin], the IC50 in experiment [1] turned out to be 12 ± 3 µM; in experiment [2], 6.6 ± 0.7 µM; in the experiment on A549 (lung cancer) cells, 5.6 ± 0.5 µM; in experiment [3], 1.3 ± 0.1 µM; in the experiment with HEK293 (kidney) cells, 1.7 ± 0.2 µM.

The record behind these values is US11884685B2, “Rhenium complexes and methods of use for treating cancer” (CORNELL UNIVERSITY, priority 2018, dated 2024).
